Key:
Type in all cases: cell-based, Human
iPS cells (G4) = assay: Differentiation of iPS cells into neural precursor cells on PA6 feeder cells (SDIA method), immunostaining; settings: day 14, PA6 feeder cells; for Nestin and Oct3/4 immunostaining of colonies: 2 μM Dorsomorphin and/or 10 μM SB431542
Protocol: Human ES cells (KhES-1, KhES-2, and KhES-3) from the Institute for Frontier Medical Sciences, Kyoto University were provided, and they were then cultured by the known method (Suemori H, et al. Biochem Biophys Res Commun. 345: 926-32, 2006). Human iPS cells (G1, G4, B6, and B7) were provided by Dr. Yamanaka of Kyoto University and then cultured by the known method (Takahashi K, et al. Cell. 131: 861-72, 2007 and Nakagawa M, et al. Nat Biotechnol. 26: 101-6, 2008). PA6 cells (RIKEN BRC Cell Bank) were seeded on a gelatin-coated dish and then cultured using MEM alpha containing 10% FBS. Upon induction of differentiation, cells were cultured for at least one day, confirmed to be confluent, and then used as feeder cells. Human iPS cells (404C2) was established by introducing reprogramming factors (OCT3/4, SOX2, KLF4, L-MYC, LIN28, and shRNA for p53) into human fibroblast using a vector containg EBNA-1 and oriP (U.S. 61/232,402 and U.S. 61/307,306), then cultured by same method of other human iPS cells.
ES cells or iPS cells were cultured using STO cells as feeder cells. One day before the initiation of differentiation induction, 10 μM ROCK inhibitor (Y27632) was added into a medium. CTK dissociation solution (0.25% Trypsin, 1 mg/ml Collagenase and KSR 20%, and 1 mM CaCl2) was added at 500 μl/10 cm dish, followed by 3 to 5 minutes of incubation at 37° C. The dish was gently tapped to remove feeder cells. After washing once with PBS, the CTK dissociation solution was added again, followed by 10-15 minutes of incubation at 37° C. ES cells or iPS cells detached from the dish were suspended in 5 ml of differentiation medium (DMEM/Ham's F12 containing 5% knockout serum replacement (KSR), 2 mM L-glutamine, non-essential amino acids, and 1 μM 2-mercaptoethanol (2-ME)). After centrifugation, supernatants were removed. Again, the cells were suspended in 1 ml of the differentiation medium and then separated from each other by pipetting, so as to result in small aggregates (10-20 cells/clump).
The obtained small aggregates were seeded on dishes having PA6 as feeder cells at concentrations ranging from 2500 to 5000 cells/cm^2. As a medium, a differentiation medium containing 2 μM Dorsomorphin (Sigma) and/or 10 μM SB431542 (Sigma) and/or 300 ng/ml Noggin (HZ-1026: HumanZyme) or 2 μl/well DMSO was used. 10 μM Y27632 was added only in the initial culture. Medium exchange was not performed until day 7, and it was then performed once every 3 to 4 days.
On day 14 after differentiation induction, cells were fixed with 4% PFA for 30 minutes at 4° C. and then immunostained in PBS with each antibody listed in Table 1.

[1] = system: KhES-1, KhES-2, KhES-3, G1, G4, B6, and B7; assay: SDIA method, colony counts per well in 7 ES/iPS cell lines; settings: day 14, 7 cell lines; for Number of colonies per well compared with control group or Noggin group: n=28
Protocol: When at least one positive cell could be confirmed within a colony, such colony was counted as a positive colony. […] Biochem Biophys Res Commun. 345: 926-32, 2006). Human iPS cells (G1, G4, B6, and B7) were provided by Dr. Yamanaka of Kyoto University and then cultured by the known method (Takahashi K, et al. Cell. 131: 861-72, 2007 and Nakagawa M, et al. Nat Biotechnol. 26: 101-6, 2008). PA6 cells (RIKEN BRC Cell Bank) were seeded on a gelatin-coated dish and then cultured using MEM alpha containing 10% FBS. Upon induction of differentiation, cells were cultured for at least one day, confirmed to be confluent, and then used as feeder cells. […] ES cells or iPS cells were cultured using STO cells as feeder cells. One day before the initiation of differentiation induction, 10 μM ROCK inhibitor (Y27632) was added into a medium. […] The dish was gently tapped to remove feeder cells. After washing once with PBS, the CTK dissociation solution was added again, followed by 10-15 minutes of incubation at 37° C. ES cells or iPS cells detached from the dish were suspended in 5 ml of differentiation medium (DMEM/Ham's F12 containing 5% knockout serum replacement (KSR), 2 mM L-glutamine, non-essential amino acids, and 1 μM 2-mercaptoethanol (2-ME)). After centrifugation, supernatants were removed. Again, the cells were suspended in 1 ml of the differentiation medium and then separated from each other by pipetting, so as to result in small aggregates (10-20 cells/clump). The obtained small aggregates were seeded on dishes having PA6 as feeder cells at concentrations ranging from 2500 to 5000 cells/cm^2. As a medium, a differentiation medium containing 2 μM Dorsomorphin (Sigma) and/or 10 μM SB431542 (Sigma) and/or 300 ng/ml Noggin (HZ-1026: HumanZyme) or 2 μl/well DMSO was used. 10 μM Y27632 was added only in the initial culture. Medium exchange was not performed until day 7, and it was then performed once every 3 to 4 days. On day 14 after differentiation induction, cells were fixed with 4% PFA for 30 minutes at 4° C. and then immunostained in PBS with each antibody listed in Table 1. […]

KhES-5 cells = assay: Optimal concentration of LDN-193189 with SB431542 (SDIA method), KhES-5; settings: day 14, with SB431542, PA6 cells
Protocol: Differentiation was induced by co-culturing an ES cell line (Kh-ES5) with PA6 cells according to the SDIA method, then culturing the cells in a medium supplemented with 5-500 nM LDN-193189 and SB431542.
On one day before the initiation of differentiation induction, CTK dissociation solution (0.25% Trypsin, 1 mg/ml Collagenase and KSR 20%, and 1 mM CaCl2) was added to ES cells (KhES-1, KhES-4, and KhES-5), colonies were dissociated. ES cells detached from the dish were subjected to removal of MEF on gelatin coating, suspended in a differentiation medium (DMEM/Ham's F12 containing 5% knockout serum replacement (KSR), 2 mM L-glutamine, non-essential amino acids, and 1 μM 2-mercaptoethanol (2-ME)) for 1 hour, and then separated by pipetting so as to result in small aggregates (10-20 cells/clump). The obtained small aggregates were seeded on PA6 at a concentration ranging from 2500 to 5000 cells/cm^2. On day 4 of culture, the medium was exchanged with a differentiation medium supplemented with 10 μM SB431542 and 5-1,000 nM LDN-193189. Three days later, the medium was exchanged with a differentiation medium without SB431542 and LDN-193189. Thereafter, medium exchanges with such a differentiation medium without SB431542 and LDN-193189 were performed at 2- to 3-day intervals. […]

[2] = system: KhES-1 cell line and KhES-4 cell line; assay: Optimal concentration of LDN-193189 with SB431542 (SDIA method), KhES-1 and KhES-4; settings: day 14, with SB431542, PA6 cells
Protocol: On one day before the initiation of differentiation induction, CTK dissociation solution (0.25% Trypsin, 1 mg/ml Collagenase and KSR 20%, and 1 mM CaCl2) was added to ES cells (KhES-1, KhES-4, and KhES-5), colonies were dissociated. ES cells detached from the dish were subjected to removal of MEF on gelatin coating, suspended in a differentiation medium (DMEM/Ham's F12 containing 5% knockout serum replacement (KSR), 2 mM L-glutamine, non-essential amino acids, and 1 μM 2-mercaptoethanol (2-ME)) for 1 hour, and then separated by pipetting so as to result in small aggregates (10-20 cells/clump). The obtained small aggregates were seeded on PA6 at a concentration ranging from 2500 to 5000 cells/cm^2. On day 4 of culture, the medium was exchanged with a differentiation medium supplemented with 10 μM SB431542 and 5-1,000 nM LDN-193189. Three days later, the medium was exchanged with a differentiation medium without SB431542 and LDN-193189. Thereafter, medium exchanges with such a differentiation medium without SB431542 and LDN-193189 were performed at 2- to 3-day intervals.
Human ES cells (KhES-1, KhES-4, and KhES-5) were subjected to differentiation induction performed by a stromal cell-derived inducing activity method (SDIA method) using LDN-193189 at a concentration ranging from 5 nM to 1000 nM, in order to determine an optimal concentration of LDN-193189.

| SMILES | Immunostaining for undifferentiation markers Nanog or SSEA3 and neural markers Pax6 or PSA-NCAM (iPS cells (G4)) | Nestin and Oct3/4 immunostaining of colonies (iPS cells (G4)) | Number of colonies per well compared with control group or Noggin group [1] | Concentration of LDN-193189 at which differentiation into neural precursor cells was induced relatively successfully (Nestin staining) (KhES-5 cells) | Increase of effect at LDN-193189 concentration higher than 50 nM (KhES-5 cells) | Concentration of LDN-193189 at which cells were stained to the highest degree with Pax6 [2] | Elimination of undifferentiated cells (Nestin-positive vs Oct3/4-positive colonies) [1] |
| --- | --- | --- | --- | --- | --- | --- | --- |
| c1cc(-c2cnn3cc(-c4ccc(OCCN5CCCCC5)cc4)cnc23)ccn1 [Dorsomorphin, 6-[4-(2-piperidin-1-yl-ethoxy)phenyl]-3-pyridin-4-yl-pyrazolo[1,5-a]pyrimidine] | undifferentiated cells and neural precursor cells coexisted | colonies positive for both Nestin and Oct3/4 were confirmed | significantly higher | – | – | – | – |
| c1ccc2c(-c3cnn4cc(-c5ccc(N6CCNCC6)cc5)cnc34)ccnc2c1 [LDN-193189, 4-(6-(4-(piperazin-1-yl)phenyl)pyrazolo[1,5-a]pyrimidin-3-yl)quinoline] | – | – | – | ≥ 50 nM | not observed that the effect was increased | 20 nM | – |
| NC(=O)c1ccc(-c2nc(-c3ccc4c(c3)OCO4)c(-c3ccccn3)[nH]2)cc1 [SB431542, 4-[4-(1,3-benzodioxol-5-yl)-5-(2-pyridinyl)-1H-imidazol-2-yl]benzamide] | neural precursor cells appeared in aggregated cell populations | aggregated cell populations were positive for Nestin | significantly higher | – | – | – | effective in elimination of undifferentiated cells |

— US11261425B2, “Method for inducing differentiation of pluripotent stem cells into neural precursor cells” (Kyoto University, priority 2009, dated 2022)
